Where two headings read alike, the source gives them in different places. Marks after values point to notes of the source that are not given here. Starred links: 1 amine or outer side, 2 acyl side, 3 side chain; linkers in the order of their positions; H or OH if unused. Non-standard residues stand in square brackets, D forms with d. Residues, ends and D or L forms follow the SMILES beside them. Groups on a side chain read outwards from the residue. No end group written: not given here. *: point of attachment. C18 diacid = O=C(O)CCCCCCCCCCCCCCCCC(=O)*; αMePhe(2-F) = C[C@](N)(Cc1ccccc1F)C(=O)O; γGlu = O=C(O)[C@H](CCC(=O)[*:2])N[*:1]; αMe4Pal = C[C@](N)(Cc1ccncc1)C(=O)O; αMeY = C[C@](N)(Cc1ccc(O)cc1)C(=O)O; 4Pal = N[C@@H](Cc1ccncc1)C(=O)O; αMeL = CC(C)C[C@](C)(N)C(=O)O; αMeS = C[C@](N)(CO)C(=O)O; Orn = NCCC[C@H](N)C(=O)O; AEEA = NCCOCCOCC(=O)O; Aib = CC(C)(N)C(=O)O
Experiments:
hGIPR [1] = biological target: T1, hGIPR (Homo sapiens, UniProt P48546); test: Functional cAMP activation in the presence of 0.1% casein (no HSA); assay type: cell-based; settings: read-out: Relative cAMP EC50, hGIPR;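 further: intracellular cAMP rise after 30 min at 37 °C read by HTRF against a standard curve, scaled between buffer alone (0%) and top control ligand concentration (100%), four-parameter fit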
T1 sequence (P48546 22-466): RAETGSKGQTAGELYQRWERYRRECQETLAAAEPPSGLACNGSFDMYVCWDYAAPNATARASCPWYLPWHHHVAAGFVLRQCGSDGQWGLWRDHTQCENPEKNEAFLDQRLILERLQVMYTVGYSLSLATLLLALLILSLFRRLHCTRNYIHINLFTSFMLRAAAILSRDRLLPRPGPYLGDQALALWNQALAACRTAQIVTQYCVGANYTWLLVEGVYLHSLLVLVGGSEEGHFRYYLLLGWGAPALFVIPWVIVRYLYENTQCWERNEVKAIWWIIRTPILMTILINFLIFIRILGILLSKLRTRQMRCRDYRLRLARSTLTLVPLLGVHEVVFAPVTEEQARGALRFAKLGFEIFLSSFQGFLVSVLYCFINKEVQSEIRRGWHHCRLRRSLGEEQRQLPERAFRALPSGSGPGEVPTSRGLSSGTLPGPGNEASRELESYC

[2] = Body weight in diet-induced obese C57BL/6 mice; assay type: in vivo; settings: 10 nmol/kg SC QD, percent of starting weight, DIO mice, mean ± SEM n=5
In short: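 Daily weighing gave body weight as percent of starting value (mean±SEM, n=5) over 9-16 days of SC dosing, once daily or every 3 days, shortly before lights-off. Animals were weight-randomized male C57BL/6 DIO mice, 41-50 g, fed ad libitum on a calorie-rich diet.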

human GcgR = human GcgR (Homo sapiens, UniProt P47871); test: Functional cAMP activity in the presence of 1% HSA; assay type: cell-based; settings: read-out: cAMP Rel EC50, hGcgR
human GcgR, sequence (P47871 26-477): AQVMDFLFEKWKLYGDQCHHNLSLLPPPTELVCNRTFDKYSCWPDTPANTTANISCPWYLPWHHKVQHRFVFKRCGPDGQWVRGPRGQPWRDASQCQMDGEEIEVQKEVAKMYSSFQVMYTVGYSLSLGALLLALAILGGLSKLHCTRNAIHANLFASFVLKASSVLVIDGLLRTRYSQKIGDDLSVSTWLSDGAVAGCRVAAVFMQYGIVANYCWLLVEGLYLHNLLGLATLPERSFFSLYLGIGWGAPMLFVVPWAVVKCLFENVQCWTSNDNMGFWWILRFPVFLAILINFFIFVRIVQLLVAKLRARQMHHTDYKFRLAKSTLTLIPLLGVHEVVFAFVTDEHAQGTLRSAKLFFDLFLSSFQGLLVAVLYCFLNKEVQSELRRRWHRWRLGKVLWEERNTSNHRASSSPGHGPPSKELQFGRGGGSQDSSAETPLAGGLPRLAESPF

hGIPR [3] = biological target: T1, hGIPR; test: Functional cAMP activity in the presence of 1% HSA; assay type: cell-based; settings: read-out: cAMP Rel EC50, hGIPR
in vivo = test: in vivo; parameters: species or system Sprague Dawley rats; settings: male, Sprague Dawley, rat, 4 mg/kg
hGLP-1R [4] = biological target: T2, hGLP-1R (Homo sapiens, UniProt P43220); test: Functional cAMP activation in the presence of 0.1% casein (no HSA); assay type: cell-based; settings: read-out: Relative cAMP EC50, hGLP-1R;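 further: intracellular cAMP rise after 30 min at 37 °C read by HTRF, normalized between buffer only (0%) and maximal control ligand (100%), four-parameter variable-slope fit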
T2 sequence (P43220 24-463): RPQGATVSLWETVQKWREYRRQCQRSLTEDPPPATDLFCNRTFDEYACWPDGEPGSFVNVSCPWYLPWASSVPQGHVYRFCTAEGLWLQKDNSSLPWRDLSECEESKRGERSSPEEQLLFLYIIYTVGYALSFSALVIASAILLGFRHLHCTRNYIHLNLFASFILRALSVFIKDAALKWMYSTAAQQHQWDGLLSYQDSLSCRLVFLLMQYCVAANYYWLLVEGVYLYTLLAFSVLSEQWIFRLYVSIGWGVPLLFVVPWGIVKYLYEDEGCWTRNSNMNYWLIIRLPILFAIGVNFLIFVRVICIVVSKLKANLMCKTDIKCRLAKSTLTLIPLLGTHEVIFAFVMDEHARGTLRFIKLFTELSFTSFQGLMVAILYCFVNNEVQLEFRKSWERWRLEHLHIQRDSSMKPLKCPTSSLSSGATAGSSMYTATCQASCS

hGcgR = hGcgR (Homo sapiens, UniProt P47871); test: as above; assay type: cell-based; settings: read-out: Relative cAMP EC50, hGcgR;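 further: intracellular cAMP rise after 30 min at 37 °C, read by HTRF against a cAMP standard curve, scaled from buffer only (0%) to maximal control ligand response (100%)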
hGcgR, sequence (P47871 26-477): as the sequence (P47871 26-477) above

hGLP-1R [5] = biological target: T2, hGLP-1R; test: Functional cAMP activity in the presence of 1% HSA; assay type: cell-based; settings: read-out: cAMP Rel EC50, hGLP-1R
[6] = in the presence of 0.1% casein (no HSA), geometric mean

Compound	EC50 (human GcgR)	EC50 (hGIPR [3])	CL/F (in vivo)	half-life (in vivo)	EC50 (hGLP-1R [5])	EC50 (hGIPR [1])	EC50 (hGLP-1R [4])	EC50 (hGcgR)	EC50 (hGIPR [1]; [6])	Body weight (%) ([2]; 14 days)	EC50 (hGLP-1R [4]; [6])	EC50 (hGcgR; [6])	Body weight (%) ([2]; 9 days)	Body weight (%) ([2]; 15 days)
CC[C@H](C)[C@H](NC(=O)[C@H](Cc1ccccc1)NC(=O)[C@H](CCCN)NC(=O)C(C)(C)NC(=O)[C@H](CCC(N)=O)NC(=O)[C@H](C)NC(=O)[C@H](CCCCNC(=O)COCCOCCNC(=O)CC[C@H](NC(=O)CCCCCCCCCCCCCCCCC(=O)O)C(=O)O)NC(=O)[C@H](CCCN)NC(=O)[C@H](CC(=O)O)NC(=O)[C@H](CC(C)C)NC(=O)[C@](C)(CC(C)C)NC(=O)[C@@H](NC(=O)[C@](C)(CO)NC(=O)[C@H](Cc1ccc(O)cc1)NC(=O)[C@H](CC(=O)O)NC(=O)[C@H](CO)NC(=O)[C@@H](NC(=O)[C@](C)(Cc1ccccc1F)NC(=O)[C@@H](NC(=O)CNC(=O)[C@H](CCC(N)=O)NC(=O)C(C)(C)NC(=O)[C@@H](N)Cc1ccc(O)cc1)[C@@H](C)O)[C@@H](C)O)[C@@H](C)CC)C(=O)N[C@H](CCC(=O)O)C(=O)N[C@@](C)(Cc1ccc(O)cc1)C(=O)N[C@@H](CC(C)C)C(=O)N[C@@H](CC(C)C)C(=O)N[C@@H](CCC(=O)O)C(=O)NCC(=O)NCC(=O)N1CCC[C@H]1C(=O)N[C@@H](CO)C(=O)N[C@@H](CO)C(=O)NCC(=O)N[C@@H](CCC(=O)O)C(=O)N1CCC[C@H]1C(=O)N1CCC[C@H]1C(=O)N1CCC[C@H]1C(=O)N[C@@H](CO)C(N)=O [Example 368] (H-Y[Aib]QGT[αMePhe(2-F)]TSDY[αMeS]I[αMeL]LD[Orn]K([AEEA-γGlu-C18 diacid])AQ[Aib][Orn]FI[dE][αMeY]LLEGGPSSGEPPPS-NH2)	111 nM	2.62 nM	7.33 mL/min/kg	576 min	37.4 nM				0.0121 nM	52.52 +/− 2.49**** %	0.242 nM	0.481 nM		
H-Y[Aib]QGT[αMePhe(2-F)]TSD[4Pal][αMeS]I[αMeL]LD[Orn]K([AEEA-γGlu-C18 diacid])AQ[Aib][Orn]FI[dE][αMeY]LIEGGPSSGEPPPEEG-NH2 [Example 462]	183 nM	1.62 nM	10 mL/min/kg	660 min	12.9 nM	0.0148 nM	0.204 nM	1.69 nM					73.68 ± 2.82 %	
Y[Aib]QGT[αMePhe(2-F)]TSD[4Pal][αMeS]I[αMeL]LD[Orn]K([AEEA-γGlu-C18 diacid])AQ[Aib][Orn]FI[dE]YLIEGGPSSGEPPPSEG-NH2 [Example 463]	496 nM	6.36 nM	16.2 mL/min/kg	498 min	24.7 nM	0.0558 nM	0.362 nM	4.27 nM					83.31 ± 2.10 %	
H-Y[Aib]QGT[αMePhe(2-F)]TSD[4Pal]SI[αMeL]LD[Orn]K([AEEA-γGlu-C18 diacid])AQ[αMe4Pal][Orn]FI[dE][αMeY]LIEGGPSSGEPPPEEG-NH2 [Example 475]	254 nM	1.85 nM	3.5 mL/min/kg	822 min	18.6 nM	0.0173 nM	0.254 nM	2.24 nM					69.34 ± 2.99 %	
H-Y[Aib]QGT[αMePhe(2-F)]TSD[4Pal][αMeS]I[αMeL]LD[Orn]K([AEEA-AEEA-γGlu-C18 diacid])AQ[Aib][Orn]FI[dE][αMeY]LIEGGPSSGAPEPSEG-NH2 [Example 472]	229 nM	0.927 nM	7.33 mL/min/kg	564 min	7.88 nM	0.015 nM	0.171 nM	2.73 nM					76.13 ± 2.28 %	
CC[C@H](C)[C@H](NC(=O)[C@H](Cc1ccccc1)NC(=O)[C@H](CCCN)NC(=O)C(C)(C)NC(=O)[C@H](CCC(N)=O)NC(=O)[C@H](C)NC(=O)[C@H](CCCCNC(=O)COCCOCCNC(=O)CC[C@H](NC(=O)CCCCCCCCCCCCCCCCC(=O)O)C(=O)O)NC(=O)[C@H](CCCN)NC(=O)[C@H](CC(=O)O)NC(=O)[C@H](CC(C)C)NC(=O)[C@](C)(CC(C)C)NC(=O)[C@@H](NC(=O)[C@](C)(CO)NC(=O)[C@H](Cc1ccncc1)NC(=O)[C@H](CC(=O)O)NC(=O)[C@H](CO)NC(=O)[C@@H](NC(=O)[C@](C)(Cc1ccccc1F)NC(=O)[C@@H](NC(=O)CNC(=O)[C@H](CCC(N)=O)NC(=O)C(C)(C)NC(=O)[C@@H](N)Cc1ccc(O)cc1)[C@@H](C)O)[C@@H](C)O)[C@@H](C)CC)C(=O)N[C@H](CCC(=O)O)C(=O)N[C@@](C)(Cc1ccc(O)cc1)C(=O)N[C@@H](CC(C)C)C(=O)N[C@@H](CC(C)C)C(=O)N[C@@H](CCC(=O)O)C(=O)NCC(=O)NCC(=O)N1CCC[C@H]1C(=O)N[C@@H](CO)C(=O)N[C@@H](CO)C(=O)NCC(=O)N[C@@H](CCC(=O)O)C(=O)N1CCC[C@H]1C(=O)N1CCC[C@H]1C(=O)N1CCC[C@H]1C(=O)N[C@@H](CO)C(N)=O [Example 369] (H-Y[Aib]QGT[αMePhe(2-F)]TSD[4Pal][αMeS]I[αMeL]LD[Orn]K([AEEA-γGlu-C18 diacid])AQ[Aib][Orn]FI[dE][αMeY]LLEGGPSSGEPPPS-NH2)	111 nM	4.58 nM	11.3 mL/min/kg	492 min	26.8 nM				0.0263 nM	52.91 +/− 2.17**** %	0.301 nM	0.873 nM		

Further compounds by falling EC50 (human GcgR), results first:

EC50 (human GcgR)	EC50 (hGIPR [3])	CL/F (in vivo)	half-life (in vivo)	EC50 (hGLP-1R [5])	EC50 (hGIPR [1])	EC50 (hGLP-1R [4])	EC50 (hGcgR)	Compound	EC50 (hGIPR [1]; [6])	Body weight (%) ([2]; 14 days)	EC50 (hGLP-1R [4]; [6])	EC50 (hGcgR; [6])	Body weight (%) ([2]; 9 days)	Body weight (%) ([2]; 15 days)
176 nM	2.15 nM	3.83 mL/min/kg	492 min	18.8 nM				CC[C@H](C)[C@H](NC(=O)[C@H](CC(C)C)NC(=O)[C@](C)(Cc1ccc(O)cc1)NC(=O)[C@@H](CCC(=O)O)NC(=O)[C@@H](NC(=O)[C@H](Cc1ccccc1)NC(=O)[C@H](CCCN)NC(=O)C(C)(C)NC(=O)[C@H](CCC(N)=O)NC(=O)[C@H](C)NC(=O)[C@H](CCCCNC(=O)COCCOCCNC(=O)CC[C@H](NC(=O)CCCCCCCCCCCCCCCCC(=O)O)C(=O)O)NC(=O)[C@H](CCCN)NC(=O)[C@H](CC(=O)O)NC(=O)[C@H](CC(C)C)NC(=O)[C@](C)(CC(C)C)NC(=O)[C@@H](NC(=O)[C@](C)(CO)NC(=O)[C@H](Cc1ccncc1)NC(=O)[C@H](CC(=O)O)NC(=O)[C@H](CO)NC(=O)[C@@H](NC(=O)[C@](C)(Cc1ccccc1F)NC(=O)[C@@H](NC(=O)CNC(=O)[C@H](CCC(N)=O)NC(=O)C(C)(C)NC(=O)[C@@H](N)Cc1ccc(O)cc1)[C@@H](C)O)[C@@H](C)O)[C@@H](C)CC)[C@@H](C)CC)C(=O)N[C@@H](CCC(=O)O)C(=O)NCC(=O)NCC(=O)N1CCC[C@H]1C(=O)N[C@@H](CO)C(=O)N[C@@H](CO)C(=O)NCC(=O)N[C@@H](CCC(=O)O)C(=O)N1CCC[C@H]1C(=O)N1CCC[C@H]1C(=O)N1CCC[C@H]1C(=O)N[C@@H](CCC(=O)O)C(N)=O [Example 378] (H-Y[Aib]QGT[αMePhe(2-F)]TSD[4Pal][αMeS]I[αMeL]LD[Orn]K([AEEA-γGlu-C18 diacid])AQ[Aib][Orn]FI[dE][αMeY]LIEGGPSSGEPPPE-NH2)	0.0213 nM		0.251 nM	1.45 nM		68.84 +/− 1.37**** %
138 nM	1.89 nM	10.7 mL/min/kg	468 min	12.1 nM	0.0142 nM	0.178 nM	1.19 nM	Y[Aib]QGT[αMePhe(2-F)]TSD[4Pal][αMeS]I[αMeL]LD[Orn]K([AEEA-γGlu-C18 diacid])AQ[Aib][Orn]FI[dE][αMeY]LIEGGPSSGAPEPSEG-NH2 [Example 429]					74.66 ± 3.87 %	70.20 ± 1.63 %
111 nM	1.71 nM	16.3 mL/min/kg	396 min	12 nM	0.0183 nM	0.213 nM	1.99 nM	H-Y[Aib]QGT[αMePhe(2-F)]TSD[4Pal][αMeS]I[αMeL]LD[Orn]K([AEEA-γGlu-C18 diacid])AQ[Aib][Orn]FI[dE][αMeY]LIEGGPSSGEPPPSEG-NH2 [Example 401]						71.54 ± 3.32 %

Source: patent US20240270821A1, “GIP/GLP1/GCG TRI-RECEPTOR AGONISTS AND USES THEREOF” (priority 2023, published 2024)
